This passage reports IC50 results from ChEMBL document CHEMBL1130550, “Sch 207278: a novel farnesyl protein transferase inhibitor from an unidentified fungus” (Bioorg Med Chem Lett, 1997).

Assay [1] can be described thus: Inhibition of Geranylgeranyl transferase type I. On the set-up: species or system Homo sapiens.
For assay [2], the target named is Protein farnesyltransferase (Homo sapiens, UniProt P49354+P49356). The experiment in a line: Inhibition of Farnesyltransferase. Format: protein-complex assay.

`CC(=O)Oc1cc(C=O)cc(C(=O)c2cccc(OC(C)=O)c2OC(C)=O)c1C=O`: the IC50 in assay [1] worked out at 85 µM; in assay [2] it was 2400 nM.

As to `O=Cc1cc(O)c(C=O)c(C(=O)c2cccc(O)c2O)c1`, the IC50 is 70 µM in assay [1] and 3500 nM in assay [2].

The term IC50 denotes the point on the concentration scale where inhibition reaches its midpoint. The low end stands for higher potency, the high end for lower potency.
